{"source": "patent US20040067531A1", "about": "“Methods of modulating protein tyrosine kinase function with substituted indolinone compounds” (SUGEN, INC., priority 1997, published 2004)", "key": {"PDGF receptor": {"target": "PDGF receptor (Homo sapiens, UniProt P09619)", "sequence (P09619 33-1106)": "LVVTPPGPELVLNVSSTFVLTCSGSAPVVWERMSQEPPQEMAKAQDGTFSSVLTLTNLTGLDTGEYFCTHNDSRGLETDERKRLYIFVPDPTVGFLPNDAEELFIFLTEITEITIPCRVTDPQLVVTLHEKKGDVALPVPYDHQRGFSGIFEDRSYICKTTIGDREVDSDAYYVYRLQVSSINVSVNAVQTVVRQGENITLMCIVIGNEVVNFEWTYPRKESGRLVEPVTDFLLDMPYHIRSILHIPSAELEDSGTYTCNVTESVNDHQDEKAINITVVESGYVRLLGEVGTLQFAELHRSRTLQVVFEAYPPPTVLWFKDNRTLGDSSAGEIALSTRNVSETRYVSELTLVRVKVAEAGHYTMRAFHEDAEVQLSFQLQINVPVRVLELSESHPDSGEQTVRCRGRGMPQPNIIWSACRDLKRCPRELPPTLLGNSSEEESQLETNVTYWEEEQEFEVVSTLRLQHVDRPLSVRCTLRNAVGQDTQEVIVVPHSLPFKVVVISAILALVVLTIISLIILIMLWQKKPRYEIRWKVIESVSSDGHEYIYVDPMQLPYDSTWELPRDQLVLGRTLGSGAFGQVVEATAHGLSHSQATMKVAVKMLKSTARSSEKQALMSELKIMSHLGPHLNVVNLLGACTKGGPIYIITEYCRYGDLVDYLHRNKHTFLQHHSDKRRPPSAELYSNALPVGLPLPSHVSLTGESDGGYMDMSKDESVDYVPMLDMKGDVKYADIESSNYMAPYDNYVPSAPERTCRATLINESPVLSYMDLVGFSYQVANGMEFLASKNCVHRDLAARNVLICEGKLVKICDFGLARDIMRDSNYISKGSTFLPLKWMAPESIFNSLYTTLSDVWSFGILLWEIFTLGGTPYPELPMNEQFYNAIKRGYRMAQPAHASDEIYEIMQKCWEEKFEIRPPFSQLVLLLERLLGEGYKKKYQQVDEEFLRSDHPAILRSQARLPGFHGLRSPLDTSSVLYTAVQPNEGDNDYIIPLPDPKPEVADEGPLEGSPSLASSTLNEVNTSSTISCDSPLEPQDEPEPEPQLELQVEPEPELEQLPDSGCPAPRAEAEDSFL", "assay": "ELISA assay measuring the kinase activity of the PDGF receptor in U1242 cells", "assay_type": "cell-based", "conditions": "ligand stimulation, phosphotyrosine ELISA", "procedure": "All cell culture media, glutanine, and fetal bovine serum were purchased from Gibco Life Technologies (Grand Island, N.Y.) unless otherwise specified. All cells were grown in a humid atmosphere of 90-95% air and 5-10% CO2 at 37° C. All cell lines were routinely subcultured twice a week and were negative for mycoplasma as determined by the Mycotect method (Gibco).\nFor ELISA assays, cells (U1242, obtained from Joseph Schlessinger, NYU) were grown to 80-90% confluency in growth medium (MEM with 10% FBS, NEAA, 1 mM NaPyr and 2 mM GLN) and seeded in 96-well tissue culture plates in 0.5% serum at 25,000 to 30,000 cells per well. After overnight incubation in 0.5% serum-containing medium cells were changed to serum-free medium and treated with test compound for 2 hr in a 5% CO21 37° C. incubator. […] Absorbance at 410 nm with a reference wavelength of 630 nm was recorded about 15 to 30 min after ABTS addition.\n(§1) The IC50 values were measured for several of the compounds of the invention."}, "[1]": {"target": "Myc-GyrB-FGFR fusion protein (Homo sapiens, UniProt P11362)", "sequence (P11362 398-822)": "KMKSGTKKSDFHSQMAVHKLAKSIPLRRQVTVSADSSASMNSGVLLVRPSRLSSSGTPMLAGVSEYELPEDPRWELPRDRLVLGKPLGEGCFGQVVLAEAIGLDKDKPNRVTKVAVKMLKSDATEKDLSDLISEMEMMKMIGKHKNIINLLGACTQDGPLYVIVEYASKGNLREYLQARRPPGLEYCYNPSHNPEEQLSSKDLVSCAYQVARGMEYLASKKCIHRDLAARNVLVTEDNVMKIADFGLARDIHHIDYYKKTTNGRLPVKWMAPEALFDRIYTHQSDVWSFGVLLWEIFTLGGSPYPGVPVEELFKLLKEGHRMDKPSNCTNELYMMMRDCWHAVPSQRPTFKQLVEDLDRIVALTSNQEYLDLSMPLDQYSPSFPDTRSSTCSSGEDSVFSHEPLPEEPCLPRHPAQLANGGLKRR", "assay": "ELISA assay measuring the kinase activity of the FGF receptor (Myc-GyrB-FGFR from COS/FGFR cell lysate)", "assay_type": "biochemical", "conditions": "7 μM ATP", "method": "The following protocol describes the reagents and procedures used to analyze protein-tyrosine kinase activity of the Myc-GyrB-FGFR fusion protein.\nCoat Corning 96 well ELISA plates with 1.0 μg/well of Rabbit αGyrB antibody in PBS for a total well volume of 100 μL. Store overnight at 4° C.\nRemove unbound Rabbit antibody by inverting plate to remove liquid. Pat plate on a paper towel to remove excess liquid and bubbles\nAdd 100 μL of Blocking Buffer (TBB) to each well. Incubate while shaking on a microliter plate shaker at room temperature for 30 min.\nWash 4× with TBST. Pat plate on a paper towel to remove excess liquid and bubbles.\nAdd 15 μg COS/FGFR cell lysate Myc-GyrB-FGFR sources per well in HNTG for a final volume of 100 μL per well. Incubate while shaking on a micro-liter plate shaker at room temperature for 2 hours.\nWash 4× with TBST as described in step 4.\nAdd 80 μL of 1× kinase buffer per well.\nDilute compunds/extracts 1:10 (or as stated otherwise) in 1× kinase buffer +1% DMSO in a polypropylene 96 well plate.\nAt this point diluted Compounds/Extracts are added to the ELISA plate. […]"}, "EGFR protein": {"target": "T1, EGFR protein (Homo sapiens, UniProt P00533)", "T1 construct": "A431 cell lysate; endogenous in cells; host or cells: A431", "T1 sequence (P00533 25-1210)": "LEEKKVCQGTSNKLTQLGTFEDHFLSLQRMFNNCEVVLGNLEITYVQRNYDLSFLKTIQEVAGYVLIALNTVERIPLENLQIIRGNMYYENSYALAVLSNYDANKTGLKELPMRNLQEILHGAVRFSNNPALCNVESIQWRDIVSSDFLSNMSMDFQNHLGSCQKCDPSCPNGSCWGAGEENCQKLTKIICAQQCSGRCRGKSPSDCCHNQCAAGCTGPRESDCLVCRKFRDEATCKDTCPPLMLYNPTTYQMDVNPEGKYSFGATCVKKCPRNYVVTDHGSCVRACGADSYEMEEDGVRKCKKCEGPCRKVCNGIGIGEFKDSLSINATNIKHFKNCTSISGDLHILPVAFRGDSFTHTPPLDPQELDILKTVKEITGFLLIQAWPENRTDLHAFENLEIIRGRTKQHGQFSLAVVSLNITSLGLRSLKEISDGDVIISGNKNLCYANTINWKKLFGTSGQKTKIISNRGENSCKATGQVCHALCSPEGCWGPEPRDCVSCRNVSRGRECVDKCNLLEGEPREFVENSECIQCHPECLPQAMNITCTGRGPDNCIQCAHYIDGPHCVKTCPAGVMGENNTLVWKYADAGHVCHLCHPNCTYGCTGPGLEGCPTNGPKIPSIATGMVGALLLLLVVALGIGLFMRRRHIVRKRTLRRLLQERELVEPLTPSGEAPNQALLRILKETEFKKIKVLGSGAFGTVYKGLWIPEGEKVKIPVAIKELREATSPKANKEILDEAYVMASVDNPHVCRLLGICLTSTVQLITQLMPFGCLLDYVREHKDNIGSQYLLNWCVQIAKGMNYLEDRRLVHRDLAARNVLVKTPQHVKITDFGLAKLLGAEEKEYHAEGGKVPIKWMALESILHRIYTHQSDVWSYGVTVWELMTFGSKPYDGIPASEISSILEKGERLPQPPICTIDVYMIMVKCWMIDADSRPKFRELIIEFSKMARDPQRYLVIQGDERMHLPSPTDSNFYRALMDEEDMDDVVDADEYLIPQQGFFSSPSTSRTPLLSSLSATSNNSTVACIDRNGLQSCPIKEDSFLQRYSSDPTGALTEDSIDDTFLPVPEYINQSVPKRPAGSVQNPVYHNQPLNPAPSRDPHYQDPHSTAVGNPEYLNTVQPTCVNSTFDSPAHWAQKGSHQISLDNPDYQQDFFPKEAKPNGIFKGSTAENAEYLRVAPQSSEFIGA", "assay": "ELISA assay measuring the kinase activity of the EGF receptor (EGFR captured from A431 cell lysate)", "assay_type": "biochemical", "procedure": "The following protocol describes the reagents and procedures used to analyze protein tyrosine kinase activity on the EGFR protein.\nAll of the following steps are conducted at room temperature unless it is specifically indicated. All ELISA plate washing is by rinsing 4× with TBST.\n1. Coat Corning 96 well ELISA plates with 0.5 μg/well of SUMO1 in a volume of 100 μL PBS. Store overnight at 4° C.\n2. Remove unbound SUMO1 by inverting plate to remove liquid. Wash plates with distilled water. Pat plate on a paper towel to remove excess liquid and bubbles\n3. Add 150 μL of Blocking Buffer to each well. Incubate while shaking on a microliter plate shaker at room temperature for 30 min.\n4. Wash 3× with deionized water, then once with TBST. Pat plate on a paper towel to remove excess liquid and bubbles.\n5. Dilute lysate in PBS (7 μg of lysate/100 μL of PBS).\n6. Add 100 μL of diluted lysate to each well. Shake at room temperature for 60 min.\n7. Wash as described in step 4.\n8. Add 120 μL TBS to ELISA plate containing captured EGFR.\n9. Dilute drugs/extracts 1:10 (unless specified otherwise) in TBS in 96-well polypropylene plates.\n10. Add 13.5 μL diluted drugs/extracts to ELISA plate.\n11. Incubate for 30 minutes while shaking at room temperture.\n12. […] Incubate while shaking on a micro-liter plate shaker at room temperature for 5 min.\n13. Stop Kinase reaction with the addition of 16.5 μL of 200 mM EDTA pH 8.0 to all wells.\n14. Wash 4× with deionized water and twice with TBST.\n15. Add 100 μL per well of anti-phosphotyrosine (1:3000 dilution in TBST). Incubate while shaking on a micro-liter plate shaker 30-45 minutes at room temperature while shaking.\n16. Wash as described in step 4.\n17. Add 100 μL per well of biosource Goat anti-rabbit IgG peroxidase conjugate (1:2000 dilution in TBST). Incubate 30 min. at room temerature while shaking.\n18. Wash as described in step 4.\n19. Add 100 μL of ABTS/H2O2 solution to each well.\n20. Incubate 5 to 15 minutes while shaking. Remove any bubbles.\n21. If necessary stop reaction with the addition of 10 μL of 0.2 M HCl/well.\n22. Read assay on Dynatech MR7000 ELISA Plate Reader.\nas §1"}}, "data": [{"molecule": "O=C(O)CCc1c(C=C2C(=O)Nc3ccccc32)[nH]c2c1CCCC2", "note": "[IN-001, 3-[2-(2-Oxo-1,2-dihydro-indol-3-ylidenemethyl)-4,5,6,7-tetrahydro-1H-indol-3-yl]-propionic acid]", "values": [{"measurement": "melting point", "result": "263 to 265", "unit": "°C"}]}, {"molecule": "O=C(O)CCc1c(C=C2C(=O)Nc3ccc(Cl)cc32)[nH]c2c1CCCC2", "note": "[IN-002, 3-[2-(5-Chloro-2-oxo-1,2-dihydro-indol-3-ylidenemethyl)-4,5.6,7-tetrahydro-1H-indol-3-yl]-propionic acid]", "values": [{"measurement": "IC50", "setting": "PDGF receptor", "result": 0.05, "unit": "µM"}, {"measurement": "IC50", "setting": "[1]", "result": 0.37, "unit": "µM"}]}, {"molecule": "O=C(CCc1c(C=C2C(=O)Nc3ccccc32)[nH]c2c1CCCC2)NCCN1CCOCC1", "note": "[IN-013, N-(2-Morpholin-4-yl-ethyl)-3-[2-(2-oxo-1,2-dihydro-indol-3-ylidenemethyl)-4,5,6,7-tetrahydro-1H-indol-3-yl]-propionamide]", "values": [{"measurement": "melting point", "result": "256 to 258", "unit": "°C"}]}, {"molecule": "Cc1c[nH]c(C=C2C(=O)Nc3ccccc32)c1CCC(=O)O", "note": "[IN-026, 3-[4-Methyl-2-(2-oxo-1,2-dihydro-indol-3-ylidenemethyl)-1H-pyrrol-3-yl]-propionic acid]", "values": [{"measurement": "IC50", "setting": "EGFR protein", "result": "> 100", "unit": "µM"}]}, {"molecule": "Cc1c[nH]c(C=C2C(=O)Nc3ccc(Cl)cc32)c1CCC(=O)O", "note": "[IN-027, 3-[2-(5-Chloro-2-oxo-1,2-dihydro-indol-3-ylidenemethyl)-4-methyl-1H-pyrrol-3-yl]-propionic acid]", "values": [{"measurement": "IC50", "setting": "EGFR protein", "result": "> 100", "unit": "µM"}]}, {"molecule": "COc1ccc2c(c1)NC(=O)C2=Cc1[nH]cc(C)c1CCC(=O)O", "note": "[IN-028, 3-[2-(6-Methoxy-2-oxo-1,2-dihydro-indol-3-ylidenemethyl)-4-methyl-1H-pyrrol-3-yl]-propionic acid]", "values": [{"measurement": "IC50", "setting": "EGFR protein", "result": "> 100", "unit": "µM"}]}, {"molecule": "Cc1c[nH]c(C=C2C(=O)Nc3cccc(C)c32)c1CCC(=O)O", "note": "[IN-029, 3-[2-(4-Methyl-2-oxo-1,2-dihydro-indol-3-ylidenemethyl)-4-methyl-1H-pyrrol-3-yl]-propionic acid]", "values": [{"measurement": "IC50", "setting": "EGFR protein", "result": "> 100", "unit": "µM"}]}, {"molecule": "Cc1c[nH]c(C=C2C(=O)Nc3cc(Cl)ccc32)c1CCC(=O)O", "note": "[IN-030, 3-[2-(6-Chloro-2-oxo-1,2-dihydro-indol-3-ylidenemethyl)-4-methyl-1H-pyrrol-3-yl]-propionic acid]", "values": [{"measurement": "IC50", "setting": "EGFR protein", "result": 98.1, "unit": "µM"}]}, {"molecule": "Cc1c[nH]c(C=C2C(=O)Nc3ccc(Br)cc32)c1CCC(=O)O", "note": "[IN-031, 3-[2-(5-Bromo-2-oxo-1,2-dihydro-indol-3-ylidenemethyl)-4-methyl-1H-pyrrol-3-yl]-propionic acid]", "values": [{"measurement": "IC50", "setting": "EGFR protein", "result": "> 100", "unit": "µM"}]}]}
